According to ChEMBL document CHEMBL6134844, “Development of Next-Generation Antimalarial Acridones with Radical Cure Potential” (J Med Chem, 2025):

Tests used:
Plasmodium cynomolgi [1] = experiment: (§1) Antiplasmodial activity against hypnozoite Plasmodium cynomolgi B strain infected in Macaca mulatta hepatocytes incubated with sporozoite containing salivary gland homogenate obtained from dissected Anopheles dirus mosquitoes (infected with Plasmodium cynomolgi B strain) treatment started on day 4 post infection and continued daily for 4 days into fresh changed media until day 8 assessed as Liver stage (LS) activity by measuring prophylactic mode by immunofluorescent staining analysis; format: functional, organism-based; settings: Hepatocyte
[2] = as §1, with “Selectivity index, ratio of CC50 for Macaca mulatta hepatocytes to IC50 for antiplasmodial” for “Antiplasmodial”, “schizont” for “hypnozoite”, “radical cure” for “prophylactic”; format: toxicity, cell-based; settings: rhesus monkey, read-out: Selectivity Index
HepG2 = experiment: Cytotoxicity against human HepG2 cells assessed as cell viability measured after 48 hrs by MTT assay; format: functional, cell-based; settings: HepG2, 48 h
Plasmodium falciparum [3] = experiment: Antiplasmodial activity against asexual blood-stage (ABS) ATV-resistant clinical isolate Plasmodium falciparum Tm90-C2B infected in human erythrocytes assessed as reduction in fluorescence measured after 72 hrs by Malaria SYBR Green I-based Fluorescence (MSF) assay; format: functional, organism-based; settings: Erythrocyte
Plasmodium falciparum [4] = experiment: Antiplasmodial activity against asexual blood-stage (ABS) MDR Plasmodium falciparum Dd2 infected in human erythrocytes assessed as reduction in fluorescence measured after 72 hrs by Malaria SYBR Green I-based Fluorescence (MSF) assay; format: functional, organism-based; settings: Dd2, Erythrocyte
[5] = as §1, with “Selectivity index, ratio of CC50 for Macaca mulatta hepatocytes to IC50 for antiplasmodial” for “Antiplasmodial”, “schizont” for “hypnozoite”; format: toxicity, cell-based; settings: rhesus monkey, read-out: Selectivity Index
Hepatocyte = experiment: Cytotoxicity against Macaca mulatta hepatocytes assessed as cell viability measured after 48 hrs by MTT assay; format: toxicity, cell-based; settings: rhesus monkey, 48 h
[6] = mouse, microsomes, 1 h
Plasmodium falciparum [7] = experiment: Antiplasmodial activity against asexual blood-stage (ABS) CQ-sensitive Plasmodium falciparum D6 infected in human erythrocytes assessed as reduction in fluorescence measured after 72 hrs by Malaria SYBR Green I-based Fluorescence (MSF) assay; format: functional, organism-based; settings: D6, Erythrocyte
Plasmodium cynomolgi [8] = experiment: as §1, with “schizont” for “hypnozoite”, “radical cure” for “prophylactic”; format: functional, organism-based; settings: Hepatocyte
Plasmodium cynomolgi [9] = experiment: as §1, with “radical cure” for “prophylactic”; format: functional, organism-based; settings: Hepatocyte
Plasmodium cynomolgi [10] = experiment: as §1, with “schizont” for “hypnozoite”; format: functional, organism-based; settings: Hepatocyte
[11] = as §1, with “Selectivity index, ratio of CC50 for Macaca mulatta hepatocytes to IC50 for antiplasmodial” for “Antiplasmodial”, “radical cure” for “prophylactic”; format: toxicity, cell-based; settings: rhesus monkey, read-out: Selectivity Index
[12] = as §1, with “Selectivity index, ratio of CC50 for Macaca mulatta hepatocytes to IC50 for antiplasmodial” for “Antiplasmodial”; format: toxicity, cell-based; settings: rhesus monkey, read-out: Selectivity Index
[13] = human, microsomes, 1 h
[14] = Toxicity in CF1 mouse infected with asexual blood-stage (ABS) Plasmodium yoelii MRA-428 assessed as ruffled hair at 0.3 to 30 mg/kg, po treated 24 hrs post infection measured after 4 days; format: organism-based; settings: in vivo, 96 h, dose 0.3-30 mg/kg, time 4 day
[15] = Toxicity in CF1 mouse infected with asexual blood-stage (ABS) Plasmodium yoelii MRA-428 assessed as hyperactivity at 0.3 to 30 mg/kg, po treated 24 hrs post infection measured after 4 days; format: organism-based; settings: in vivo, 96 h, dose 0.3-30 mg/kg, time 4 day
[16] = Toxicity in CF1 mouse infected with asexual blood-stage (ABS) Plasmodium yoelii MRA-428 assessed as hunching at 0.3 to 30 mg/kg, po treated 24 hrs post infection measured after 4 days; format: organism-based; settings: in vivo, 96 h, dose 0.3-30 mg/kg, time 4 day
[17] = Toxicity in CF1 mouse infected with asexual blood-stage (ABS) Plasmodium yoelii MRA-428 assessed as lethargy at 0.3 to 30 mg/kg, po treated 24 hrs post infection measured after 4 days; format: organism-based; settings: in vivo, 96 h, dose 0.3-30 mg/kg, time 4 day
[18] = Toxicity in CF1 mouse infected with asexual blood-stage (ABS) Plasmodium yoelii MRA-428 assessed as weight loss at 0.3 to 30 mg/kg, po treated 24 hrs post infection measured after 4 days; format: organism-based; settings: in vivo, 96 h, dose 0.3-30 mg/kg, time 4 day

Structure (SMILES): O=c1c2ccc(OCc3cccc(C(F)(F)F)c3)cc2[nH]c2ccc(Cl)c(F)c12
- IC50 (Plasmodium cynomolgi [1]): 0.4 µM
- selectivity ratio at 96 h [2]: > 13.1
- IC50 (HepG2): > 200 µM
- IC50 (Plasmodium falciparum [3]): 0.118 µM
- IC50 (Plasmodium falciparum [4]): 0.0004 nM
- selectivity ratio at 96 h [5]: > 250
- CC50 (Hepatocyte): > 20 µM
- CLH [6]: 15.6 µL/min/mg
- IC50 (Plasmodium falciparum [7]): 0.0003 nM
- IC50 (Plasmodium cynomolgi [8]): 1.53 µM
- IC50 (Plasmodium cynomolgi [9]): 2.19 µM
- IC50 (Plasmodium cynomolgi [10]): 0.08 µM
- selectivity ratio at 96 h [11]: > 9.13
- selectivity ratio at 96 h [12]: > 50
- t1/2 [13]: > 1 h

Structure (SMILES): O=c1c2ccc(OCc3cccc(OC(F)(F)F)c3)cc2[nH]c2ccc(Cl)c(F)c12
- IC50 (Plasmodium cynomolgi [1]): 0.24 µM
- selectivity ratio at 96 h [2]: > 6.13
- IC50 (HepG2): > 200 µM
- IC50 (Plasmodium falciparum [3]): 0.181 µM
- IC50 (Plasmodium falciparum [4]): 0.0004 nM
- selectivity ratio at 96 h [5]: > 333
- CC50 (Hepatocyte): > 20 µM
- CLH [6]: 21.8 µL/min/mg
- IC50 (Plasmodium falciparum [7]): 0.00029 nM
- IC50 (Plasmodium cynomolgi [8]): 3.26 µM
- IC50 (Plasmodium cynomolgi [9]): 1.94 µM
- IC50 (Plasmodium cynomolgi [10]): 0.06 µM
- selectivity ratio at 96 h [11]: > 10.3
- selectivity ratio at 96 h [12]: > 83.3
- t1/2 [13]: > 1 h

Structure (SMILES): O=c1c2c(F)cc(Cl)cc2[nH]c2cccc(Oc3ccc(OC(F)(F)F)cc3)c12
- IC50 (Plasmodium cynomolgi [1]): > 20 µM
- selectivity ratio at 96 h [2]: > 1.2
- IC50 (HepG2): 189 µM
- IC50 (Plasmodium falciparum [3]): > 2.5 µM
- IC50 (Plasmodium falciparum [4]): 188 nM
- selectivity ratio at 96 h [5]: > 2.71
- CC50 (Hepatocyte): > 20 µM
- CLH [6]: 45.4 µL/min/mg
- IC50 (Plasmodium falciparum [7]): 87.8 nM
- IC50 (Plasmodium cynomolgi [8]): 16.6 µM
- IC50 (Plasmodium cynomolgi [9]): > 20 µM
- IC50 (Plasmodium cynomolgi [10]): 7.37 µM
- t1/2 [13]: > 1 h

Structure (SMILES): CCCN(CCC)CCNc1ccc2c(=O)c3c([nH]c2c1)CCCC3
- IC50 (Plasmodium cynomolgi [1]): > 20 µM
- Activity [14]: Non-toxic
- IC50 (Plasmodium falciparum [3]): > 2.5 µM
- IC50 (Plasmodium falciparum [4]): > 2500 nM
- CC50 (Hepatocyte): > 20 µM
- Activity [15]: Non-toxic
- CLH [6]: > 500 µL/min/mg
- IC50 (Plasmodium falciparum [7]): > 2500 nM
- IC50 (Plasmodium cynomolgi [8]): > 20 µM
- IC50 (Plasmodium cynomolgi [9]): > 20 µM
- Activity [16]: Non-toxic
- IC50 (Plasmodium cynomolgi [10]): > 20 µM
- Activity [17]: Non-toxic
- Activity [18]: Non-toxic

Structure (SMILES): O=c1c2ccc(Oc3ccccc3OC(F)(F)F)cc2[nH]c2cc(Cl)cc(F)c12
- IC50 (Plasmodium cynomolgi [1]): 1.37 µM
- selectivity ratio at 96 h [2]: 2.19
- IC50 (HepG2): > 200 µM
- IC50 (Plasmodium falciparum [3]): 0.0288 µM
- IC50 (Plasmodium falciparum [4]): 0.005 nM
- selectivity ratio at 96 h [5]: 115
- CC50 (Hepatocyte): 9.21 µM
- CLH [6]: 72.3 µL/min/mg
- IC50 (Plasmodium falciparum [7]): 0.005 nM
- IC50 (Plasmodium cynomolgi [8]): 4.21 µM
- IC50 (Plasmodium cynomolgi [9]): 4.56 µM
- IC50 (Plasmodium cynomolgi [10]): 0.08 µM
- selectivity ratio at 96 h [11]: 2.02
- selectivity ratio at 96 h [12]: 6.72

Structure (SMILES): CC(C)(C)OC(=O)N1CCC(Oc2ccc3c(=O)c4c(Cl)cc(F)cc4[nH]c3c2)CC1
- IC50 (Plasmodium cynomolgi [1]): 1.37 µM
- selectivity ratio at 96 h [2]: 1.2
- IC50 (HepG2): 90.2 µM
- IC50 (Plasmodium falciparum [3]): > 2.5 µM
- IC50 (Plasmodium falciparum [4]): 45.7 nM
- selectivity ratio at 96 h [5]: 31.5
- CC50 (Hepatocyte): 4.73 µM
- CLH [6]: < 3.125 µL/min/mg
- IC50 (Plasmodium falciparum [7]): 36.7 nM
- IC50 (Plasmodium cynomolgi [8]): 3.94 µM
- IC50 (Plasmodium cynomolgi [9]): 4.44 µM
- IC50 (Plasmodium cynomolgi [10]): 0.15 µM
- selectivity ratio at 96 h [11]: 1.06
- selectivity ratio at 96 h [12]: 3.45
- t1/2 [13]: > 1 h

Structure (SMILES): COc1ccc(Oc2ccc3c(=O)c4c(F)cc(Cl)cc4[nH]c3c2)cc1
- IC50 (Plasmodium cynomolgi [1]): 4.49 µM
- selectivity ratio at 96 h [2]: 11.5
- IC50 (HepG2): > 200 µM
- IC50 (Plasmodium falciparum [3]): 0.0182 µM
- IC50 (Plasmodium falciparum [4]): 2.9e-05 nM
- selectivity ratio at 96 h [5]: 22
- CC50 (Hepatocyte): 10.8 µM
- CLH [6]: < 3.125 µL/min/mg
- IC50 (Plasmodium falciparum [7]): 5.9e-05 nM
- IC50 (Plasmodium cynomolgi [8]): 0.94 µM
- IC50 (Plasmodium cynomolgi [9]): 6.02 µM
- IC50 (Plasmodium cynomolgi [10]): 0.49 µM
- selectivity ratio at 96 h [11]: 1.79
- selectivity ratio at 96 h [12]: 2.4
- t1/2 [13]: > 1 h

Structure (SMILES): O=c1c2ccc(Oc3ccc(OC(F)(F)F)cc3)cc2[nH]c2cc(Cl)c(F)cc12
- IC50 (Plasmodium cynomolgi [1]): 1.29 µM
- IC50 (HepG2): > 200 µM
- IC50 (Plasmodium falciparum [3]): 1.52 µM
- IC50 (Plasmodium falciparum [4]): 11.1 nM
- selectivity ratio at 96 h [5]: > 74.1
- CC50 (Hepatocyte): > 20 µM
- CLH [6]: 177 µL/min/mg
- IC50 (Plasmodium falciparum [7]): 14.4 nM
- IC50 (Plasmodium cynomolgi [8]): > 20 µM
- IC50 (Plasmodium cynomolgi [9]): > 20 µM
- IC50 (Plasmodium cynomolgi [10]): 0.27 µM
- selectivity ratio at 96 h [12]: > 15.5
- t1/2 [13]: > 1 h
